According to patent US20080039422A1, “Vitamin B12-Containing Compositions and Methods of Use” (Transition Therapeutics Inc., priority 2004, published 2008):

Tests used:
[1] = Time course of CN-Cbl in solution (8 hours, 200 hours); type: physicochemical
Method: To establish more precise time courses, ten samples were prepared containing various challenge amounts of CN-Cbl in solutions containing ethanol and propylene glycol. Five of the solutions contained 15% ethanol and 20% propylene glycol and five contained 20% ethanol and 40% propylene glycol. Within each set of five, they were challenged with: (1) 50 mg/ml CN-Cbl; (2) 75 mg/ml CN-Cbl; (3) 100 mg/ml CN-Cbl; (4) 150 mg/ml CN-Cbl; and (5) 200 mg/ml CN-Cbl. To generate the solutions, the methods described above were modified by heating the solutions for 30 consecutive minutes at 60° C., after which time there was no visible precipitate. Samples were also retained within the same tubes for the duration of the study, rather than transferring supernatant fractions to fresh tubes at each time point. The concentrations were recorded eleven times; seven times within the first eight hours following the initial combination and four times over the subsequent 192 hours. The concentrations were measured at 0.5 hours, 1.0 hour, 2.0 hours, 3.0 hours, 4.0 hours, 6.0 hours, 8.0 hours, 24.0 hours, 32.0 hours, 100 hours, and 200 hours. The concentration of CN-Cbl was measured and the percentage of CN-Cbl remaining in solution was calculated.

[2] = reported, cited from earlier work
[3] = CN-Cbl concentration in excipient solutions after challenge, mixing and heating; type: physicochemical
Method: The experiments conducted in this series feature cyanocobalamin (CN-Cbl). Varying amounts of CN-Cbl were added to various excipients, including water alone, water with one other agent (e.g., ethanol) and water with two other agents (e.g., ethanol and propylene glycol). The stability was tested after varying amounts of time, and following procedures in which the vitamin B12 compound and its excipient were combined by vigorous mixing and heated.
More specifically, for each excipient condition, CN-Cbl was weighed into an Eppendorf tube, and an appropriate volume of excipient solution was added to achieve the “challenge” concentration in a total volume of ˜0.4-0.7 ml. The tube was then vortexed before being heated to 60° C. for two hours, with additional mixing by vortexing carried out for 5-10 seconds every 5-10 minutes.
Following the mixing and heating procedure described above, the tubes were cooled to room temperature (RT) and left at room temperature for 1-2 hours. Before measuring the concentration of CN-Cbl, the solutions were clarified by centrifugation for ten minutes at rcf 16,100. […] Cyanocobalamin and cyanocobalamin-containing solutions were protected from light (by being kept covered with foil) as much as practicable.
In one study, CN-Cbl was combined with excipients containing propylene glycol, ethanol, PEG 300, or glycerol so that the final maximum concentration of CN-Cbl could be as high as 100 mg/ml. The amount of each excipient was also varied from 5-80% (however, not all possible variants were tested). […] The concentration of CN-Cbl to be solubilized (the “challenge”) in each case was 100 mg/ml of CN-Cbl, and the concentration of each of the excipients varied from 5% to 80% in water. […] The concentrations of CN-Cbl in other excipients were even greater. For example, the concentration of CN-Cbl in solutions containing 40 or 50% PEG 300 was about 45 mg/ml; the concentration in 15% ethanol was about 35 mg/ml; the concentration in 20% ethanol was about 52 mg/ml; and the concentrations in propylene glycol at any concentration over 30% was more than 85 mg/ml (see Table 1).
In other studies, combinations were tested of ethanol and propylene glycol or of ethanol and PEG 300. Tables 2A-2D are tables showing the concentrations of cyanocobalamin (CN-Cbl; mg/ml) in combinations of excipients. […] The concentrations of ethanol ranged from 0-20% and the concentrations of propylene glycol ranged from 0 to 60%. […] In Table 2C, the amount of propylene glycol and the amount of CN-Cbl (the “challenge”) varied. The excipient contained 20% ethanol and 0-40% propylene glycol, and the amount of CN-Cbl challenge added varied from 50-200 mg/ml. Table 2D reports final concentrations of CN-Cbl when excipients containing varying amounts of propylene glycol and ethanol were challenged with 400 mg/ml CN-Cbl.

cyanocobalamin [CN-Cbl]
CN-Cbl in solution over time ([1]; challenge 150 and 200 mg/ml, greater in 15% ethanol/20% PG than in 20% ethanol/40% PG): some precipitation
CN-Cbl in solution over time ([1]; first eight hours (held true over 200 hours), challenge 50, 75 and 100 mg/ml, 15% ethanol/20% PG and 20% ethanol/40% PG): remained in solution
hygroscopicity ([2]; anhydrous form): very hygroscopic
solubility in water ([2]; 1:80 (Merck Index 1996)): ~12.5 mg/mL
final concentration of CN-Cbl ([3]; challenge 50 mg/ml, 20% ethanol and 0-40% propylene glycol): about 50 mg/ml
concentration of CN-Cbl ([3]; challenge 100 mg/mL, Ethanol 10.0% (v/v)): 29400 µg/mL
concentration of CN-Cbl ([3]; challenge 100 mg/mL, Glycerol 10.0% (v/v)): 18200 µg/mL
concentration of CN-Cbl ([3]; challenge 100 mg/mL, Glycerol 15.0% (v/v)): 19400 µg/mL
concentration of CN-Cbl ([3]; challenge 100 mg/mL, Glycerol 20.0% (v/v)): 21500 µg/mL
concentration of CN-Cbl ([3]; challenge 100 mg/mL, H2O): 14100 µg/mL
concentration of CN-Cbl ([3]; challenge 100 mg/mL, PEG 300 10.0% (v/v)): 24100 µg/mL
concentration of CN-Cbl ([3]; challenge 100 mg/mL, PEG 300 20.0% (v/v)): 34400 µg/mL
concentration of CN-Cbl ([3]; challenge 100 mg/mL, PEG 300 30.0% (v/v)): 40500 µg/mL
concentration of CN-Cbl ([3]; challenge 100 mg/mL, Propylene Glycol 10.0% (v/v)): 28100 µg/mL
concentration of CN-Cbl ([3]; challenge 100 mg/mL, Propylene Glycol 20.0% (v/v)): 41800 µg/mL
concentration of CN-Cbl ([3]; challenge 100 mg/mL, Propylene Glycol 30.0% (v/v)): 95300 µg/mL
concentration of CN-Cbl ([3]; challenge 100 mg/mL, Propylene Glycol 40.0% (v/v)): 95100 µg/mL
concentration of CN-Cbl ([3]; challenge 100 mg/mL, Propylene Glycol 50.0% (v/v)): 95100 µg/mL
concentration of CN-Cbl ([3]; challenge 100 mg/mL, Propylene Glycol 60.0% (v/v)): 95100 µg/mL
concentration of CN-Cbl ([3]; challenge 100 mg/mL, Propylene Glycol 70.0% (v/v)): 85300 µg/mL
concentration of CN-Cbl ([3]; challenge 100 mg/mL, Propylene Glycol 80% (v/v)): 90100 µg/mL
final concentration of CN-Cbl ([3]; challenge 100 mg/ml, 20% ethanol and 0-40% propylene glycol): about 100 mg/ml
concentration of CN-Cbl ([3]; challenge 100 mg/ml, propylene glycol at any concentration over 30%): more than 85 mg/ml
final concentration of CN-Cbl ([3]; challenge 175 mg/ml, 20% ethanol and 20% propylene glycol): about 177 mg/ml
concentration of CN-Cbl ([3]; challenge 200 mg/ml, PEG 300 40%, ethanol 5%): 77000 µg/mL
concentration of CN-Cbl ([3]; challenge 200 mg/ml, PEG 300 40%, ethanol 10%): 44400 µg/mL
concentration of CN-Cbl ([3]; challenge 200 mg/ml, PEG 300 40%, ethanol 15%): 62500 µg/mL
concentration of CN-Cbl ([3]; challenge 200 mg/ml, PG 0%, ethanol 0%): 17500 µg/mL
concentration of CN-Cbl ([3]; challenge 200 mg/ml, PG 0%, ethanol 5%): 22500 µg/mL
concentration of CN-Cbl ([3]; challenge 200 mg/ml, PG 0%, ethanol 10%): 28500 µg/mL
concentration of CN-Cbl ([3]; challenge 200 mg/ml, PG 0%, ethanol 15%): 27700 µg/mL
concentration of CN-Cbl ([3]; challenge 200 mg/ml, PG 0%, ethanol 20%): 176000 µg/mL
concentration of CN-Cbl ([3]; challenge 200 mg/ml, PG 20%, ethanol 0%): 31300 µg/mL
concentration of CN-Cbl ([3]; challenge 200 mg/ml, PG 20%, ethanol 5%): 34400 µg/mL
concentration of CN-Cbl ([3]; challenge 200 mg/ml, PG 20%, ethanol 10%): 55600 µg/mL
concentration of CN-Cbl ([3]; challenge 200 mg/ml, PG 20%, ethanol 15%): 182500 µg/mL
concentration of CN-Cbl ([3]; challenge 200 mg/ml, PG 20%, ethanol 20%): 177500 µg/mL
concentration of CN-Cbl ([3]; challenge 200 mg/ml, PG 30%, ethanol 0%): 35900 µg/mL
concentration of CN-Cbl ([3]; challenge 200 mg/ml, PG 30%, ethanol 5%): 64800 µg/mL
concentration of CN-Cbl ([3]; challenge 200 mg/ml, PG 30%, ethanol 15%): 150500 µg/mL
concentration of CN-Cbl ([3]; challenge 200 mg/ml, PG 30%, ethanol 20%): 180200 µg/mL
concentration of CN-Cbl ([3]; challenge 200 mg/ml, PG 40%, ethanol 0%): 172500 µg/mL
concentration of CN-Cbl ([3]; challenge 200 mg/ml, PG 40%, ethanol 5%): 177100 µg/mL
concentration of CN-Cbl ([3]; challenge 200 mg/ml, PG 40%, ethanol 10%): 184400 µg/mL
concentration of CN-Cbl ([3]; challenge 200 mg/ml, PG 40%, ethanol 20%): 186000 µg/mL
concentration of CN-Cbl ([3]; challenge 200 mg/ml, PG 50%, ethanol 0%): 145100 µg/mL
concentration of CN-Cbl ([3]; challenge 200 mg/ml, PG 50%, ethanol 5%): 179400 µg/mL
concentration of CN-Cbl ([3]; challenge 200 mg/ml, PG 50%, ethanol 10%): 190200 µg/mL
concentration of CN-Cbl ([3]; challenge 200 mg/ml, PG 50%, ethanol 15%): 179400 µg/mL
concentration of CN-Cbl ([3]; challenge 200 mg/ml, PG 50%, ethanol 20%): 187900 µg/mL
concentration of CN-Cbl ([3]; challenge 200 mg/ml, PG 60%, ethanol 0%): 185200 µg/mL
concentration of CN-Cbl ([3]; challenge 200 mg/ml, PG 60%, ethanol 5%): 184800 µg/mL
concentration of CN-Cbl ([3]; challenge 200 mg/ml, PG 60%, ethanol 10%): 186800 µg/mL
concentration of CN-Cbl ([3]; challenge 200 mg/ml, PG 60%, ethanol 15%): 186400 µg/mL
concentration of CN-Cbl ([3]; challenge 200 mg/ml, PG 60%, ethanol 20%): 196000 µg/mL
concentration of CN-Cbl ([3]; control experiments: water, challenged with 200 mg/ml): about 20 mg/ml
CN-Cbl solubilized ([3]; water, regardless of the amount of the challenge (50-200 mg/ml)): no more than 30 mg/ml
